For one test, the target named is T1, Alpha2b (Homo sapiens, UniProt P18089).
T1 construct: purchased NIMH Psychoactive Drug Screening Program (PDSP), University of North Carolina at Chapel Hill
Put plainly: PDSP competitive binding assay. The settings on record: 10 µM test article; read-out: Ki: primary assay inhibition of radioligand binding, Alpha2b.

The test system of test [1] is p-eIF2α, eIF2A, p-PERK, BiP in HEK293T cells. Put plainly: Western blot of ISR-related proteins in HEK293T cells. The test is classed as cell-based, human. The settings on record: HEK293T, 0.1, 1, 10, 100 nM, 16 h (overnight). The method, then: Huma n e mbryon ic kidn ey (HEK) 293T ce lls (ATCC # C RL- 321 6) were ge nerously dona ted by th e Ca mpb ell Lab (UT Dallas). Cell stock s were previously fr ozen at 1 million cells/ml in 90% fetal bov ine s erum (F BS, ThermoFisher #SH300880340) and 10% DMSO. Cells were grown in complete medium (10% FBS, 1% Pen- Strep in DMEM/F12 + GlutaMax (Gibco #10565- 018) in T-75 flasks (Greiner Bio- One #658175). Cells were maintained at 37 °C with 5% CO2 and passaged twice before being plated onto either 96-well or 6-well plates for ICC/spectrophotometry and western blotting, respectively. Cells were counted using the TC20 automated cell counter (Bio- R ad #1450102) using a 1:1 dilution of trypan blue (Gibco #15250061).
Concentr ations were transformed to […] values and data w as fit to a non- linear regression curve (inhibitor vs response, varia ble slop e , four p aram eters) constrain ed at top at 1 00, bott om at p -eIF2α levels at 300nM, […]
HEK cells were plated at 60,000 cells per well onto six-well plates (ThermoFisher # 351146) for 24 hours before being treated w ith F EM- 1689 overnight. Protein extractions and western blotting w as perfor med as previous ly published (10) . In brief, media fr om the cells was removed and cells were washed once with 1X
PBS. Cells were lysed in the well with radioimmunoprecipitation assay (RIPA) buffer consisting of 25 mM Tris, 150 mM NaCl, 0.1% SDS, 0.5% Na deoxycholate, 1% Triton X-100 with pr otease and phosphatas e inhibitor cocktails (Sigma Aldrich P8340, P5726, P0044 – 1:100 each). Cells were centr ifuged at 4 °C at 14,000 rpm for 10 min. The supernatant was used for downstream analysis. Protein was quantif ied using the Pierce BC A Protein Assay kit (Thermo Scientific, #23225) according to the manufacturer’s instructions.
Prote in samp les were de na tured usin g 4X L aem mli Sa mple buff er (BioR ad #1 610 747) and h eat ed at 95 °C for 5 min. 20 µg of protein samples were loaded onto 4- 20% Stain- Free Criterion TGX gels (BioRad #5678094). Gels were run in Tris/Glycine/SDS running buffer ( BioRad #1610772) at 120V for roughly 1.5 hours. St ain- Free gels wer e activated for 5 min pr ior to t he transf er step. Protein was transferred for 10 min onto low fluorescence poly vinylidene difluor ide (PVDF ) using a TransBlot Transfer kit (BioRad #1704275) and a Transblot Turbo transfer system (BioRad). Onc e transferred, total protein was imaged immediately using a ChemiDoc MP system (BioRad). Blots were allowed to dry for 5 min and were blocked with 5% non- fat milk in Tr is buffered saline (T BS)-Tween 20 (0.05%). Antibodies were diluted in 1% non- fat m ilk in TBS- Twe en 20. Primary ant ibo dies used in this st udy w ere: p- eIF 2α (1:1000, C ell Signaling #3398), t-eIF2α […]

Molecules are shown by their SMILES. “Also recorded” adds a separate entry of the source.

By inhibition is commonly meant the share of the control response that was lost under treatment.

T1 sequence (P18089 whole entry): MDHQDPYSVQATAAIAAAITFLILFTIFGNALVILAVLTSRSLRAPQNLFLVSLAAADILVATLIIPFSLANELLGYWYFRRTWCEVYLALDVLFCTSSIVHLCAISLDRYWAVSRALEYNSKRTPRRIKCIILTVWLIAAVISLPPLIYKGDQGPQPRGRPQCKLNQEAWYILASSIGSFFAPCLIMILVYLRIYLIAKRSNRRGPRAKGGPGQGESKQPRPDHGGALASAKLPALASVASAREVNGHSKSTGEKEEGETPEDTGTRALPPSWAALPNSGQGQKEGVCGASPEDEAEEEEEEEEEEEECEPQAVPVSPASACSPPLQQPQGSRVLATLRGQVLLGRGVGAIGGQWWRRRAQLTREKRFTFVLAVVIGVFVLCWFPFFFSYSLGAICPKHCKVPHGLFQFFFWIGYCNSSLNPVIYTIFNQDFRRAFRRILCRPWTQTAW

`OCCCN1CC[C@@H]2C[C@H]1c1cc(-c3ccc(C(F)(F)F)cc3)ccc12` [FEM-1689]: the inhibition at 10 µM on Alpha2b was < 50%. Also, in test [1], the “BiP level (western blot)” value is reported as “remained stable; also recorded: remained unchanged”, the “eIF2A level (western blot)” value is listed as “concentration-dependent reduction; also recorded: significant reduction”, the “p-PERK level (western blot)” value is “concentration-dependent reduction; also recorded: significant reduction” and the “p-eIF2α level (western blot)” value was “concentration-dependent reduction; also recorded: significant reduction”.

For the origin of these results see paper PMC10756276, “Highly specific σ2R/TMEM97 ligand FEM-1689 alleviates neuropathic pain and inhibits the integrated stress response” (Proceedings of the National Academy of Sciences of the …, 2023).
